Measured values published in patent publication US10085449B2, “N-[1-((6-chloropyridin-3-yl)methyl)pyridin-2(1H)-ylidene]-2,2,2- trifluoroacetamide for control of agricultural/horticultural pests” (priority 2010, dated 2018).
Read-outs that look alike come from different tables or passages of the source.

Key:
diamondback moth = assay: whole plant or invertebrate; type: in vivo; conditions: Plutella xylostella, foliar
Procedure, shortened: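 Cabbage leaf discs sprayed with compound in 50% acetone/water with 0.05% Tween 20, air-dried, then infested with second-instar larvae. Held at 25 °C under 16 h light/8 h dark; mortality from dead/(live+dead) counts after 3 days, two replicates.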

common cutworm = assay: whole plant or invertebrate; type: in vivo; conditions: for Insecticidal effects (mortality), common cutworm third-instar larvae: foliar application
Procedure, shortened: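 Cabbage leaf discs (5.0 cm) sprayed with compound at a set concentration in 50% acetone/water with 0.05% Tween 20, air dried, then infested with third-instar larvae. Held at 25° C., 16 h light/8 h dark; dead and live larvae counted after 3 days, two replicates, mortality (%) = dead/(live+dead)×100.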

green peach aphid = assay: Green peach aphid control test (foliar application); type: in vivo; conditions: Myzus persicae, in Brassica oleracea, 72 h
Excerpt: Leaf discs 2.8 cm in diameter were cut from cabbage plants grown in pots, and four adult aphids were released onto each disc. One day later, the adults were removed, and the number of first-instar larvae that had been deposited on each leaf disc was adjusted to 10. Next, the leaf discs parasitized by these first instar larvae were sprayed with solutions of the inventive compounds at a predetermined concentration prepared to 50% acetone/water (containing 0.05% Tween 20). The treated leaf discs were air dried, following which covers were placed over the Petri dishes and the leaf discs and larvae were held in an incubation chamber at 25° C. (16-hour period of light, 8-hour dark period). Three days after released, the numbers of live and dead insects were counted, and the mortality was calculated from the following formula. This was a two-replication test. Mortality (%)=[number of dead insects/(number of live insects+number of dead insects)]×100

greenhouse whitefly = assay: whole plant or invertebrate; type: in vivo; conditions: Cucumis sativus, foliar, 336 h
Experimental: Adult greenhouse whiteflies were released onto cucumber plants grown in pots, and allowed to laid eggs overnight. One day after the start of oviposition, the adults were removed, and the plants and eggs were held in an incubation chamber at 25° C. (16-hour period of light, 8-hour dark period). Three days after the end of oviposition, leaf discs 2.0 cm in diameter were cut from the cucumber plants and, after confirming oviposition thereon, the leaf discs were sprayed with solutions of the inventive compounds at a predetermined concentration prepared to 50% acetone/water (containing 0.05% Tween 20). After spraying, the treated leaf discs were held in an incubation chamber at 25° C. (16-hour period of light, 8-hour dark period). Fourteen days after spraying, the numbers of live and dead insects were counted, and the mortality was calculated from the following formula. This was a two-replication test. Mortality (%)=[(number of oviposited eggs−number of live insects)/number of oviposited eggs]×100

rice leaf bug = assay: whole plant or invertebrate; type: in vivo; conditions: foliar, 72 h
Procedure, shortened: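 Four-day wheat seedling shoots dipped 30 s in compound solution (50% acetone/water, 0.05% Tween 20), air-dried, then infested with two second-instar larvae per glass cylinder at 25 °C, 16 h light/8 h dark. Mortality (%) counted after 3 days.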

rice water weevil = assay: Rice water weevil control test (soil drenching treatment); type: in vivo; conditions: 0.1 mg/seedling soil drenching of rice seedlings, adults, 3 days after release
Experimental: Rice seedlings grown in pots were subjected to soil drenching treatment with solutions of the inventive compounds at a predetermined concentration prepared to 10% acetone/water. Two days after treatment, five adult rice water weevils were released onto each seedling. The seedlings and insects were then held in an incubation chamber at 25° C. (16-hour period of light, 8-hour dark period). Three days after released, the numbers of live and dead insects were counted, and the mortality was calculated from the following formula. The test was carried out as two replications. Mortality (%)=[number of dead insects/(number of live insects+number of dead insects)]×100

[1] = test system: house fly crude enzyme extract; assay: In vitro metabolic test using house fly crude enzyme extract; type: in vitro ADME; conditions: house fly crude enzyme extract with NADP+ regenerating system, 25° C., 40 hours, LC/MS
Experimental: As mentioned in Pest Management Science, 59(3), 347-352 (2003) and the Journal of Pesticide Science, 29(2), 110-116 (2004), imidacloprid is known to be inactivated by incurring oxidative metabolism, which is thought to be one mechanism of acquiring resistance to this agent. The following experiment was carried out to confirm the effects in pests which have acquired such resistance.
An amount of 10 mL of a potassium phosphate buffer solution (pH 7.4, containing 1 mM EDTA) was added to adult house flies (0.645 g), and the flies were thoroughly homogenized in a Physcotron (Niti-On Medical and Physical Instruments Manufacturing Co.). The homogenate was then centrifuged at 10,000 g for 15 minutes. The resulting supernatant was additionally centrifuged at 100,000 g for 60 minutes, giving a precipitate. The precipitate was dissolved in 1 mL of a potassium phosphate buffer, and the resulting solution was used as the crude enzyme extract. The enzyme extraction operations were all carried out on ice or at 4° C.
The reagents were mixed in the following proportions within a 1.5 mL tube, and the reaction was effected at 25° C. for 40 hours. Following the reaction, 1 mL of acetone was added and the mixture was stirred, following which the precipitate that formed was centrifuged at 12,000 rpm for 5 minutes. […]

[2] = read-out: Insecticidal effects (mortality), diamondback moth second-instar larvae

O=C(N=c1ccccn1Cc1ccc(Cl)nc1)C(F)(F)F [Compound 212, N-[1-((6-chloropyridin-3-yl)methyl)pyridin-2(1H)-ylidene]-2,2,2-trifluoroacetamide]
mortality at 20 ppm (diamondback moth; [2]): 100% | mortality at 100 ppm (diamondback moth; [2]): 100% | mortality at 500 ppm (diamondback moth; [2]): 100% | mortality at 100 ppm (diamondback moth; in Brassica oleracea, 72 h): ≥ 80% | mortality at 500 ppm (diamondback moth; in Brassica oleracea, 72 h): ≥ 80% | Insecticidal effects (mortality), common cutworm third-instar larvae (common cutworm; 100 ppm): 30 | Insecticidal effects (mortality), common cutworm third-instar larvae (common cutworm; 500 ppm): 100 | mortality at 500 ppm (common cutworm; foliar, 72 h): ≥ 80% | mortality at 100 ppm (green peach aphid): ≥ 80% | mortality at 100 ppm (greenhouse whitefly): ≥ 80% | mortality at 50 ppm (rice leaf bug): ≥ 80% | Mortality (rice water weevil): at least 80% | Sum of the surface area percentages for the metabolites [1]: 0.08%
